Assay results taken from US12605397B2, “Deoxy-cytidine or uridine derivatives for use in cancer therapies” (HEMISPHERIAN AS, priority 2019, dated 2026).

Experiments:
[1] = test system: HCT-116 cells; assay: Survival assay (MTT), HCT-116; format: cell-based, human; conditions: Homo sapiens
Description: (§1) Cells were incubated with the drugs for 72 hours.

[2] = test system: MIA PaCa-2 cells; assay: Survival assay (MTT), MIA PaCa-2; format: cell-based, human; conditions: Homo sapiens, MIA PaCa-2
Description: (§2) Cells were passed between 70 and 90% confluence.
as §1

[3] = test system: HL-60 cells; assay: Survival assay (MTT), HL-60; format: cell-based, human; conditions: Homo sapiens
Description: as §2, §1

[4] = test system: G144 cells; assay: Survival assay (MTT), G144; format: cell-based, human; conditions: Homo sapiens, G144, Glioma, Grade IV, 72 hours
Description: Primary glioma neural stem (GNS) cells (G7, G14, G144, G166) were cultured on poly-D-lysine (Merck Millipore, Cat. Nr. A-003-E) and laminin (R&D Systems, Cat.Nr. 3446-005-01) coated plates in neural stem cell medium (50% DMEM-F12 (Thermofisher, Cat. Nr. 21041025), 50% neurobasal medium (Thermofisher, Cat. Nr. 10888-022), N2 (Life Technologies, Cat. Nr. A-003-E) and B27 supplements (Life Technologies, Cat.Nr. 12587010), 1 mM sodium pyruvate (Life Technologies, Cat.Nr. 11360-039), 2 mM glutamax (Life Technologies, Cat. Nr. 35050038), 1 mM HEPES (Fisher Scientific, Cat. Nr. BP299-1), 0.1 mM β-mercaptoethanol (Life Technologies, Cat. Nr. 31350010), 1× nonessential amino acids (Life Technologies, Cat. Nr. 11140-035), 0.006% bovine serum albumin (Sigma, Cat. Nr. A8577-10ML), 4 μg/ml heparin (Sigma, Cat. Nr. H3149-25KU), 100 U/ml penicillin, 100 μg/ml streptomycin, 20 ng/ml hEGF (R&D Systems, Cat. Nr. 236-EG-200), 10 ng/ml bFGF (Peprotech, Cat. Nr. 100-18B).
as §1

[5] = test system: HaCat cells; assay: Survival assay (MTT), HaCat; format: cell-based, human; conditions: Homo sapiens, Normal, Keratinocytes, 72 hours
Description: as §2, §1
The present inventors further investigated the extent to which these compounds kill normal human cells; low cytotoxicity against normal human cells is advantageous property for anti-cancer agents. The cytotoxicity of these compounds in various normal human cell lines was therefore investigated (Table 3). Cells were grown and the survival assay was performed as described above (Materials and Methods).

[6] = test system: U87-MG; assay: Glioblastoma Multiforme mouse xenograft model; format: in vivo, mice; conditions: five doses; for tumour volume: over all time points
Description: Standard agent, Temozolomide, was provided by Oslo University Hospital in powder form and was formulated fresh prior to each dose by first adding appropriate volume of DMSO to pre-weighed compound, then adding appropriate volumes of Solutol (RTM) and PBS (5% DMSO/5% Solutol (RTM)/90% PBS). […] Standard agent, Temozolomide, was administered at a dose volume of 10 mL/kg.
The human brain malignant glioma cell line, U87-MG (ATCC HTB-14, epithelial glioblastoma), was obtained from American Type Culture Collection (ATCC). The cells were cultured in Minimum essential medium containing 5% fetal bovine serum (FBS) at 37° C., with 5% CO2 in an incubator.
Female (nu/nu) nude mice aged 6-7 weeks obtained from BioLasco Taiwan (under Charles River Laboratories Licensee) were used. The animals were housed in individually ventilated cages (IVC, 36 Mini Isolator system). The allocation for 5 animals was 27×20×14 in cm. All animals were maintained in a hygienic environment under controlled temperature (20-24° C.) and humidity (30%-70%) with 12-hour light/dark cycle.
Viable U87-MG (ATCC HTB-14) cells were subcutaneously (SC) implanted (5×10^6 cells/mouse in PBS at 0.2 mL/mouse) into the right flank of female nu/nu mice. When group mean tumor volumes reached approximately 129 mm^3 to 131 mm^3, tumor implanted mice were divided into four treatment groups, each group containing eight animals, and dose administrations were initiated (denoted as Day 1).
5-hydroxymethyl-2′-deoxycytidine, 5-formyl-2′-deoxycytidine at 2000 mg/kg and corresponding vehicle (5% DMSO/5% Solutol (RTM)/90% PBS) were administered intraperitoneally (IP) once every three days for a total of five administrations. Temozolomide at 40 mg/kg was administered orally (PO) once daily for five total administrations.
The tumor volume, body weight, mortality, and signs of overt toxicity were monitored and recorded twice weekly for 29 days. Tumor volume (mm^3) was estimated according to the ellipsoid formula as: length×(width)^2×0.5. Tumor growth inhibition (T/C) was calculated by the following formula:
[formula] • Cn: Tumor weight measured on Day n in the control group • Tn: Tumor weight measured on Day n in the treated group • % T/C value≤42% was considered significant antitumor activity (#). Percent tumor growth inhibition (TGI) was also calculated by the following formula:
[formula] • % TGI value≥58% was considered significant antitumor activity (#).
Two-way ANOVA (RTM) followed by Bonferroni test was also used to ascertain the statistically significant difference compared to the negative control group during study; Day 1 through to Day 29. Differences are considered significant at p<0.05 (*).
5-formyl-2′deoxycytidine and 5-hydroxymethyl-2′-deoxycytidine were evaluated in a Glioblastoma Multiforme mouse xenograft model as described above (Materials and Methods). U87-MG cells were injected subcutaneously into the flank of nude mice. Tumours were allowed to form as described above (Materials and Methods). After the tumours reached between 129 mm^3 and 131 mm^3 animals were divided into 4 groups—two treatment groups, a negative control group and a positive control group. The two treatment groups were 5-formyl-2′-deoxycytidine and 5-hydroxymethyl-2′-deoxycytidine. […]
The tumour volume (FIG. 1C), body weight (FIG. 1D), mortality, and signs of overt toxicity were monitored and recorded twice weekly for 29 days. […]

[7] = test system: HeLa cells; assay: Survival assay (MTT), HeLa; conditions: for IC50: Homo sapiens, HeLa; for cytotoxicity to HeLa cells (cell survival): three days of treatment, MTT, up to 100 μM
Description: (§3) Cell lines not mentioned above were grown in DMEM (Sigma, Cat.Nr. D6429) supplemented with 10% Fetal Bovine Serum and 100 U/ml penicillin 100 U/ml streptomycin. All cells were maintained in a 5% CO2, humidified, water-jacketed incubator at 37° C. Cells were passed between 70 and 90% confluence.
(§4) In a 96-well plate, 4000 cells in 100 μl of corresponding medium were seeded. The following day, drugs, diluted in DMSO, were added in 8 concentrations in triplicate. Drugs were added as a 4-fold dilution series starting from 100 μM. Cells were incubated with the drugs for 72 hours. Cell proliferation was assessed by MTT assay according to the manufacturer's protocol (ATCC, Cat. Nr. 30-1010K). Cell survival was normalized to the survival of cells treated with DMSO only. Experiment was performed three times, data represent mean of nine wells±SEM.
HeLa cells, grown as described above (Materials and Methods), were treated with 5-hydroxymethyl-2′-deoxycytidine and 5-formyl-2′-deoxycytidine. After three days of treatment with these compounds, cell survival was assessed as described above (Materials and Methods).
After three days of treatment with these compounds at a concentration of 100, 25, 6.25, 1.56, 0.39, 0.1, 0.02, or 0.006 μM, cell survival was assessed by MTT assay as described above (Materials and Methods).

[8] = test system: U87-MG cells; assay: Survival assay (MTT), U87-MG; conditions: for cytotoxicity to U87-MG cells (cell survival): up to 100 μM; for IC50: U87-MG; for rescue of cytotoxicity by the addition of thymidine: U87-MG cells; for cytotoxic effect in combination with Temozolomide: temozolomide resistant U87-MG cells
Description: as §3, §4
In a 96-well plate, 4000 cells in 100 μl of corresponding medium were seeded. The following day, drugs, diluted in DMSO, were added in triplicate at a concentration of 100, 25, 6.25, 1.56, 0.39, 0.1, 0.02, or 0.006 ┘M. Cells were incubated with the drugs for 72 hours. Cell proliferation was assessed by MTT assay according to the manufacturer's protocol (ATCC, Cat. Nr. 30-1010K). Cell survival was normalized to the survival of cells treated with DMSO only. Experiment was performed three times, data represent mean of nine wells±SEM.

[9] = HCT-116, 72 h, HCT-116, Colon Carcinoma, 72 hours, MTT
[10] = HCT-116, HCT-116, Tables 6 and 7, unit inferred
[11] = MIA PaCa-, Pancreatic Carcinoma, 72 hours, MTT
[12] = HL-60, Acute Promyelocytic Leukemia, 72 hours, MTT
[13] = HL-60, Tables 6 and 7, unit inferred
[14] = 2000 mg/kg IP every three days, end of study (Day 29)
[15] = Homo sapiens, U-87 MG, 72 h, Glioma, Grade IV, MTT
[16] = Homo sapiens, U-87 MG, Tables 6 and 7, unit inferred
[17] = 72 hours, MTT, listed as 5-hydroxymethyl-2′-deoxycytidine

Nc1nc(=O)n([C@H]2C[C@H](O)[C@@H](CO)O2)cc1C=O [2d5fC, 5-formyl-2′-deoxycytidine]
IC50 [1, 9]: > 25 µM | IC50 [1, 10]: ≥ 25 µM | IC50 [2, 11]: 1.14 µM | IC50 ([2]; Tables 6 and 7, unit inferred): 1.14 µM | IC50 [3, 12]: 6.26 µM | IC50 [3, 13]: 6.26 µM | IC50 [4]: > 100 µM | IC50 [5]: 0.102 µM | tumour growth inhibition (TGI) [6, 14]: 83% | tumour volume ([6]; 2000 mg/kg IP every three days): marked decrease in tumour volume | IC50 [7]: 0.76 µM | IC50 ([7]; 72 h): 0.76 µM | cytotoxicity to HeLa cells (cell survival) [7]: markedly greater cytotoxic effect | cytotoxicity to U87-MG cells (cell survival) ([8]; 72 hours, MTT): markedly more cytotoxic | IC50 [8, 15]: 0.334 µM | IC50 [8, 16]: 0.334 µM | rescue of cytotoxicity by the addition of thymidine ([8]; 72 hours, MTT): not rescued | cytotoxic effect in combination with Temozolomide ([8]; 72 hours, MTT, listed as 5-formyl-2′-deoxycytidine): synergistically | cytotoxic effect in combination with Temozolomide ([8]; 72 hours, MTT, listed as d5fC): more effective

Nc1nc(=O)n([C@H]2C[C@H](O)[C@@H](CO)O2)cc1CO [2d5hmC, 5-hydroxymethyl-2′-deoxycytidine]
IC50 [1, 9]: > 25 µM | IC50 [1, 10]: ≥ 25 µM | IC50 [2, 11]: > 25 µM | IC50 ([2]; Tables 6 and 7, unit inferred): ≥ 25 µM | IC50 [3, 12]: > 25 µM | IC50 [3, 13]: ≥ 25 µM | IC50 [4]: > 100 µM | IC50 [5]: > 25 µM | tumour growth inhibition (TGI) [6, 14]: 93% | tumour volume ([6]; 2000 mg/kg IP every three days): marked decrease in tumour volume | IC50 [7]: ≥ 25 µM | IC50 ([7]; 72 h): > 25 µM | cytotoxicity to HeLa cells (cell survival) [7]: did not differ from DMSO treated cells | cytotoxicity to U87-MG cells (cell survival) [8, 17]: cytotoxic | cytotoxicity to U87-MG cells (cell survival) ([8]; 72 hours, MTT, listed as d5hmC): markedly more cytotoxic | IC50 [8, 16]: 3.03 µM | rescue of cytotoxicity by the addition of thymidine ([8]; 72 hours, MTT): not rescued | IC50 ([8]; Glioma, Grade IV, 72 hours, MTT): > 0.334 µM | cytotoxic effect in combination with Temozolomide [8, 17]: synergistically | cytotoxic effect in combination with Temozolomide ([8]; 72 hours, MTT, listed as d5hmC): more effective

Cn1nnc2c(C(N)=O)ncn2c1=O [Temozolomide, 4-methyl-5-oxo-2,3,4,6,8-pentazabicyclo[4.3.0]nona-2,7,9-triene-9-carboxamide, reference compound]
IC50 [1, 9]: > 25 µM | IC50 [2, 11]: > 25 µM | IC50 [3, 12]: > 25 µM | IC50 [4]: 14.7 µM | IC50 [5]: > 25 µM | tumour growth inhibition (TGI) ([6]; positive control, 40 mg/kg PO once daily, end of study): 94% | IC50 ([7]; 72 h): > 25 µM | IC50 [8, 15]: > 25 µM
